Reference: PMC6609550, “Blockade of the forward Na^+/Ca^2+ exchanger suppresses the growth of glioblastoma cells through Ca^2+‐mediated cell death” (British Journal of Pharmacology, 2019)

Experiments:
[1] = Cell viability assay (Cell Counting Kit-8), ranges given for U87 and U251 together; assay type: cell-based, Human; conditions: human, U87 and U251 cells, read-out: Cell viability, % of control level
Protocol: (§1) Cell viability was determined by using a Cell Counting Kit‐8 (Dojindo, Japan). Briefly, cells were harvested from flasks and plated in 96‐well cell culture plates at 5 × 10^3 per well and cultured overnight. Cells were treated with test reagents for 72 hr. Control cells were treated with cell culture medium and measured at the same time point as treatment groups. CCK‐8 solution (10 μl) was added to each well of the 96‐well plates, and the cultures were incubated for 30 min at 37°C. Absorbance at 450 nm was measured using an automatic microplate reader (Molecular Devices, San Jose, CA, USA).

[2] = system: p38‐MAPK; experiment: Western blot of phosphorylated and total p38-MAPK in U87 cells; assay type: cell-based, Human; conditions: 25 μM, 10, 30, 60 and 90 min
Protocol: (§2) After treatment with bepridil for 0, 30, 60, and 90 min, cells were collected and lysed in RIPA buffer (Beyotime, Nanjing, China) supplemented with protease inhibitor (Beyotime). The total protein concentration of each sample was determined using the BCA Protein Assay Kit (Sangon Biotech, Shanghai, China). Equal protein extracts (45‐μg protein per lane) were separated by SDS‐PAGE and electrophoretically transferred to PVDF membranes (Millipore, Bedford, MA, USA). Then, the membranes were incubated with anti‐phosphorylated and total http://www.guidetopharmacology.org/GRAC/FamilyDisplayForward?familyId=514, http://www.guidetopharmacology.org/GRAC/FamilyDisplayForward?familyId=518, and http://www.guidetopharmacology.org/GRAC/FamilyDisplayForward?familyId=519 antibodies (1:1,000; Cell Signaling Technology) at 4°C overnight, followed by incubation with IRDye 680LT fluorescent secondary antibody (LI‐COR Biosciences, Lincoln, NE, USA). Proteins were visualized using the Odyssey Fc Imaging System (LI‐COR Biosciences, Lincoln, NE, USA). Mouse α‐tubulin antibody was used as protein loading controls. The immuno‐related procedures used comply with the recommendations made by the British Journal of Pharmacology (Alexander et al., 2018).

[3] = system: JNK; experiment: Western blot of phosphorylated and total JNK in U87 cells; assay type: cell-based, Human; conditions: 25 μM, 10, 30, 60 and 90 min
Protocol: as §2

[4] = LC-MS analysis of brain homogenate after oral bepridil; assay type: in vivo, athymic BALB/c nude mice; conditions: 50 mg·kg^−1 p.o., brain homogenate collected at 2 hr
Protocol: Athymic BALB/c nude mice were administered bepridil by oral gavage at doses of 50 mg·kg^−1 as described above. Two hours later, mice were killed, and the brain sample was homogenized using the tissue homogenizers (Bertin Instruments, Paris, France) in ice‐cold deionized water at a concentration of 3 ml·g^−1 tissue. Then, methanol with 0.1% formic acid was added to the brain homogenate in a 4:1 proportion (vol/vol) and centrifuged at 18,188× g and 4°C for 10 min to precipitate protein. The supernatant was transferred to a vial to be injected directly into the LC‐MS. The chromatographic system consisted of Shimadzu quaternary pump, vacuum degasser, and autosampler (Shimadzu, LC‐20ADXR, Tokyo, Japan) coupled to https://sciex.com/products/mass-spectrometers/triple-quad-systems, API‐4000 mass spectrometer (SCIEX, Redwood City, CA, USA). HPLC separation was performed on a Thermo Syncronis C8 column 100 × 2.1 mm, 5.0 μm. The mobile phase consisted of methanol (A) and water with 0.1% formic acid (B), measure time was 9 min per run. A flow rate of 0.3 ml·min^−1 was used using a gradient elution of 70% B at 1 min and 5–70% B between 1 and 5 min and maintained for 2 min at 5% B and back to 70% B at 7–7.1 min. […] The CE for bepridil was optimized to 30 V. The precursor‐to‐product ions (Q1 → Q3) selected for bepridil during quantitative optimization were (m/z) 367.1 → 84.3/184.3.

[5] = system: U87‐Luc xenografts; experiment: U87-luciferase intracranial xenograft, in vivo bioluminescent imaging; set-up: species or system athymic BALB/c nude mice; conditions: 50 mg·kg^−1 p.o. once a day for 14 days, from 16 days after implantation; n = 5 mice per group
Protocol: The athymic BALB/c nude mice were anaesthetized by subjecting them to 3% isoflurane (RWD Life Science, Shenzhen, China) in a mixture of 30% O2 and 70% N2O. […] The mouse head was maintained within a stereotactic frame (RWD Life Science), allowing a precise and reproducible injection. The coordinate of the injection site was 0.5 mm anterior and 2.5 mm right from the bregma and at a depth of 3 mm. U87-Luc cells (COBIOER) were assessed by the trypan blue exclusion assay. Only cell suspensions with greater than 95% viability were used and implanted into the right striatum of nude mice. U87-Luc cells (5 × 10^5 in 5-μl PBS) were inoculated into the right striatum of each mouse at a controlled flow rate of 0.5 μl·min^-1, and the total injection volume was about 5 μl. […] Tumours were measured by bioluminescence using an IVIS Spectrum CT Imaging System (PerkinElmer, Waltham, MA, USA), which captured the luminescence signal emitted from the engrafted tumour. […] Signal intensity was quantified within a region of interested over the head, as defined by Living Image software. All images represent 2-min exposure time, and the average number of photons·s^-1·cm^-2 per steradian were recorded. The data were analysed using Living Image 4.4.5 software (PerkinElmer, RRID:SCR_014247).

[6] = system: U87 and U251 cells; experiment: Cell viability assay (Cell Counting Kit-8), ranges given for U87 and U251 together; assay type: cell-based, Human; conditions: 72 hr
Protocol: as §1

| SMILES | viability at 72 h, 20 µM ([1]; 20 μM) [%] | viability at 72 h, 50 µM ([1]; 50 μM) [%] | viability at 72 h, 100 µM ([1]; 100 μM) [%] | Effect on p38-MAPK activity [2] | Effect on JNK activity [3] | Crossing of the BBB into brain tissue [4] | Growth of brain-grafted U87-Luc tumour (bioluminescence) [5] | Cell viability, % of control level ([6]; 20 μM) | Cell viability, % of control level ([6]; 50 μM) | Cell viability, % of control level ([6]; 100 μM) |
| --- | --- | --- | --- | --- | --- | --- | --- | --- | --- | --- |
| CC(C)COCC(CN(Cc1ccccc1)c1ccccc1)N1CCCC1 (stereo not shown) [Bepridil, N‐benzyl‐N‐(3‐isobutoxy‐2‐pyrrolidin‐1‐yl‐propyl)aniline] | 30 to 40 | 6 to 7 | 3 to 4 | activated | activated | can cross the BBB and get into brain tissue | successfully restrained tumour growth |  |  |  |
| CS(=O)(=O)O.N=C(N)SCCc1ccc(OCc2ccc([N+](=O)[O-])cc2)cc1 [KB‐R7943, 2‐[4‐[(4‐nitrophenyl)methoxy]phenyl]ethyl ester carbamimidothioic acid methanesulfonate] |  |  |  |  |  |  |  | 50–60% | 7–18% | 2–3% |
